Legend:
[1] = biological target: T1, TAAR13c-embedded nanodiscs (T13NDs) (Danio rerio, UniProt Q5QNP2); experiment: Real-time intrinsic tryptophan fluorescence of T13ND; type: binding, zebrafish (Danio rerio); conditions: excitation 290 nm; emission 340 nm; FIG. 11
T1 construct: His tag (from pET-DEST42) (C); made in house; host or cells: E. coli BL21 (DE3)
T1 sequence (Q5QNP2 1-341): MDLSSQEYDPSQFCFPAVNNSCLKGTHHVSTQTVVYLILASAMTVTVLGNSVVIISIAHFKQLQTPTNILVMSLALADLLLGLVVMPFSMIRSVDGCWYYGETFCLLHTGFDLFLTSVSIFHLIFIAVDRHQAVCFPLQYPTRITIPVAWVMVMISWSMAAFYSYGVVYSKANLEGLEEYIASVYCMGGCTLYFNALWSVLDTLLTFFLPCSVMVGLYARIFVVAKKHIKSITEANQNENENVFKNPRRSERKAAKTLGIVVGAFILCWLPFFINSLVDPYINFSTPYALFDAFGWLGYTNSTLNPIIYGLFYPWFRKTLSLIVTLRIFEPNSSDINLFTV
Description: The intrinsic fluorescence of T13NDs was measured real time using the LS 55 luminescence spectrometer (Perkin Elmer, USA) (excitation 290 nm; emission 340 nm). The real-time measurement of intrinsic fluorescence of TAAR13c was measured at various amine concentrations of 1 mM to 10 mM.

TAAR13c = biological target: T2, TAAR13c (Danio rerio, UniProt Q5QNP2); experiment: Dual-Glo Luciferase assay, TAAR13c-expressing HEK-293 cells; type: cell-based, zebrafish (Danio rerio)
T2 construct: expressed in transfected cells; host or cells: HEK-293
T2 sequence (Q5QNP2 1-341): T1 sequence (Q5QNP2 1-341)
Description: Human embryonic kidney (HEK)-293 cells were cultured in Dulbecco's Modified Eagles Medium (DMEM) (HyClone, USA) containing 1% penicillin, 1% streptomycin (Gibco, USA) and 10% Fetal Bovine Serum (FBS)(Gibco, USA), under the conditions of 37° C. and 5% C02. Transfection was performed by the following method using Lipofectamine® 3000. Specifically, the cells were transfected with a DNA mixture containing TAAR13c, pCRE-Luc, pSV40-RL, Gαolf, and Receptor-transporting protein 1 short (RTP1S) using Lipofectamine® 3000. The characteristics against cadaverine were confirmed using the TAAR13c produced in Example 4 by the Dual-Glo Luciferase assay system. Specifically, the transfected cells were cultured in DMEM medium (50 μL) for 30 minutes, and an odorant (25 μL) designed to the desired concentration was added thereto, and cultured for 4 hours. Then, the Dual-Glo Luciferase reagent (20 μL) was added thereto, cultured at room temperature for 10 minutes, and the firefly luciferase luminescence was measured using the luminescence plate reader. Then, the Dual-Glo Stop-n-Glo reagent (20 μL) was added to the measured sample, and the mixture was cultured at room temperature for 10 minutes, and the Renilla luciferase luminescence was measured. The measured data was analyzed using the following formula. […]

[2] = test system: HEK-293 cells transfected with a random vector (MocK); experiment: Dual-Glo Luciferase assay, cells transfected with a random vector (MocK); type: cell-based, Human; conditions: Comparative Example, FIG. 5

real-time tryptophan fluorescence of T13ND with increasing concentration of CV [1]: T13ND has an affinity for CV | selectivity of TAAR13c response among various amines (cell-based) (TAAR13c; FIG. 6): showed a response only against CV | response of TAAR13c-expressing cells to CV (normalised CRE/Renilla luciferase) (TAAR13c; concentration-dependent treatment of CV, 4 hours, FIG. 5): significant response
Compound: NCCCCCN [CV, cadaverine]
response of Mock-transfected cells to CV (normalised CRE/Renilla luciferase) [2]: did not show any significant response
